Source: PubChem BioAssay AID1963451 (Molecular Pharmacology Branch, DTP, NCI, 2024)

Test system: 521955-158-R6-J3-PDC complex spheroid growth, % test/control
Assay: Anticancer human tumor 521955-158-R6-J3-PDC patient-derived pancreatic carcinoma cell line growth inhibition [Asc]
Details: for IC50: curve of first compound; for viability, T/C: stronger effect = lower value
Procedure, shortened: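 Tumor cells were grown as multicellular spheroids with stromal HUVEC and mesenchymal stem cells and treated singly or in combination. Concentrations fell in half-log steps from the clinical Cmax, or from 10 microM where none was known.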

[1] = second compound 0.0316 µM, first compound 0.0316 µM
[2] = second compound 0.0316 µM, first compound 0.1 µM
[3] = second compound 0.0316 µM, first compound 0.316 µM
[4] = second compound 0.0316 µM, first compound 1 µM
[5] = second compound 0.1 µM, first compound 0.0316 µM
[6] = second compound 0.1 µM, first compound 0.1 µM
[7] = second compound 0.1 µM, first compound 0.316 µM
[8] = second compound 0.1 µM, first compound 1 µM
[9] = second compound 0.316 µM, first compound 0.0316 µM
[10] = second compound 0.316 µM, first compound 0.1 µM
[11] = second compound 0.316 µM, first compound 0.316 µM
[12] = second compound 0.316 µM, first compound 1 µM
[13] = second compound 1 µM, first compound 0.0316 µM
[14] = second compound 1 µM, first compound 0.1 µM
[15] = second compound 1 µM, first compound 0.316 µM
[16] = second compound 1 µM, first compound 1 µM
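Further: spheroids exposed to compounds for 7 days.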
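Wherever viability, T/C is given: 100% = DMSO vehicle control wells.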

C=C(F)C(=O)N1CCN(c2nc(OCC3CCCN3C)nc3c2CCN(c2cccc4cccc(Cl)c24)C3)CC1CC#N (centres undefined) + CNC(C)C(=O)NC1CN(S(=O)(=O)c2cccc(S(=O)(=O)N3CCC4CCC(C(=O)NC(c5ccccc5)c5ccccc5)N4C(=O)C(NC(=O)C(C)NC)C3)c2)CCC2CCC(C(=O)NC(c3ccccc3)c3ccccc3)N2C1=O
IC50 (second compound 0.00316 µM): 4.74 µM
IC50 (second compound 0.01 µM): 4.13 µM
IC50 (second compound 0.0316 µM): 3.96 µM
IC50 (second compound 0.1 µM): 4.13 µM
IC50 (second compound 0.316 µM): 3.84 µM
IC50 (second compound 1 µM): 3.46 µM
viability, T/C (second compound 0.00316 µM, first compound 0.0316 µM): 92.6%
viability, T/C (second compound 0.00316 µM, first compound 0.1 µM): 88.5%
viability, T/C (second compound 0.00316 µM, first compound 0.316 µM): 81.2%
viability, T/C (second compound 0.00316 µM, first compound 1 µM): 77.6%
viability, T/C (second compound 0.00316 µM, first compound 3.16 µM): 76.8%
viability, T/C (second compound 0.00316 µM, first compound 10 µM): 0.24%
viability, T/C (second compound 0.01 µM, first compound 0.0316 µM): 87.4%
viability, T/C (second compound 0.01 µM, first compound 0.1 µM): 83%
viability, T/C (second compound 0.01 µM, first compound 0.316 µM): 80.5%
viability, T/C (second compound 0.01 µM, first compound 1 µM): 66.9%
viability, T/C (second compound 0.01 µM, first compound 3.16 µM): 69.4%
viability, T/C (second compound 0.01 µM, first compound 10 µM): 0.28%
viability, T/C [1]: 95.6%
viability, T/C [2]: 98.2%
viability, T/C [3]: 73.7%
viability, T/C [4]: 71.2%
viability, T/C (second compound 0.0316 µM, first compound 3.16 µM): 70.2%
viability, T/C (second compound 0.0316 µM, first compound 10 µM): 0.21%
viability, T/C [5]: 84.9%
viability, T/C [6]: 74.2%
viability, T/C [7]: 76.4%
viability, T/C [8]: 69.7%
viability, T/C (second compound 0.1 µM, first compound 3.16 µM): 66.7%
viability, T/C (second compound 0.1 µM, first compound 10 µM): 0.28%
viability, T/C [9]: 79.6%
viability, T/C [10]: 80.6%
viability, T/C [11]: 77.1%
viability, T/C [12]: 68.8%
viability, T/C (second compound 0.316 µM, first compound 3.16 µM): 62.5%
viability, T/C (second compound 0.316 µM, first compound 10 µM): 0.26%
viability, T/C [13]: 70.8%
viability, T/C [14]: 77.2%
viability, T/C [15]: 80.2%
viability, T/C [16]: 71.5%
viability, T/C (second compound 1 µM, first compound 3.16 µM): 54.4%
viability, T/C (second compound 1 µM, first compound 10 µM): 0.32%

CNC(C)C(=O)NC1CN(S(=O)(=O)c2cccc(S(=O)(=O)N3CCC4CCC(C(=O)NC(c5ccccc5)c5ccccc5)N4C(=O)C(NC(=O)C(C)NC)C3)c2)CCC2CCC(C(=O)NC(c3ccccc3)c3ccccc3)N2C1=O (centres undefined) + Cc1c(S(C)(=O)=O)c(-c2cc(F)cc(N3CCN(c4ccc(NS(=O)(=O)c5ccc(NC(CCN6CCC(C(=O)OCCCP(=O)(O)O)CC6)CSc6ccccc6)c(S(=O)(=O)C(F)(F)F)c5)cc4)CC3)c2)c(-c2ccc(Cl)cc2)n1C(C)C
IC50 (second compound 0.0316 µM): > 1 µM
IC50 (second compound 0.1 µM): > 1 µM
IC50 (second compound 0.316 µM): 0.00502 µM
IC50 (second compound 1 µM): < 0.00316 µM
IC50 (second compound 3.16 µM): < 0.00316 µM
IC50 (second compound 10 µM): < 0.00316 µM
viability, T/C (second compound 0.0316 µM, first compound 0.00316 µM): 101%
viability, T/C (second compound 0.0316 µM, first compound 0.01 µM): 90.1%
viability, T/C [1]: 80.1%
viability, T/C [2]: 72.5%
viability, T/C [3]: 67.3%
viability, T/C [4]: 60.4%
viability, T/C (second compound 0.1 µM, first compound 0.00316 µM): 93.4%
viability, T/C (second compound 0.1 µM, first compound 0.01 µM): 64.7%
viability, T/C [5]: 57.1%
viability, T/C [6]: 56.4%
viability, T/C [7]: 51.4%
viability, T/C [8]: 55.4%
viability, T/C (second compound 0.316 µM, first compound 0.00316 µM): 57.3%
viability, T/C (second compound 0.316 µM, first compound 0.01 µM): 38.4%
viability, T/C [9]: 42.8%
viability, T/C [10]: 39.4%
viability, T/C [11]: 35.7%
viability, T/C [12]: 35.5%
viability, T/C (second compound 1 µM, first compound 0.00316 µM): 31.6%
viability, T/C (second compound 1 µM, first compound 0.01 µM): 23.8%
viability, T/C [13]: 29.6%
viability, T/C [14]: 19.9%
viability, T/C [15]: 25.4%
viability, T/C [16]: 21.1%
viability, T/C (second compound 3.16 µM, first compound 0.00316 µM): 14.6%
viability, T/C (second compound 3.16 µM, first compound 0.01 µM): 13%
viability, T/C (second compound 3.16 µM, first compound 0.0316 µM): 16.9%
viability, T/C (second compound 3.16 µM, first compound 0.1 µM): 14.1%
viability, T/C (second compound 3.16 µM, first compound 0.316 µM): 12.3%
viability, T/C (second compound 3.16 µM, first compound 1 µM): 13.3%
viability, T/C (second compound 10 µM, first compound 0.00316 µM): 10.6%
viability, T/C (second compound 10 µM, first compound 0.01 µM): 12%
viability, T/C (second compound 10 µM, first compound 0.0316 µM): 8.73%
viability, T/C (second compound 10 µM, first compound 0.1 µM): 9.27%
viability, T/C (second compound 10 µM, first compound 0.316 µM): 10.4%
viability, T/C (second compound 10 µM, first compound 1 µM): 6.75%
